Patent EP2236157A1 (PharmaNeuroBoost N.V., priority 2009, dated 2010)

What was measured:
other dopamine receptors = assay: receptor binding affinity (pKi)
patients with OCD = assay: semi-naturalistic open label study of combo pipamperone-citalopram in obsessive-compulsive disorder (Example 4); format: in vivo; conditions: pipamperone 16-19 mg/day + citalopram 30-60 mg/day
Procedure: This semi-naturalistic open label study investigates the efficacy and tolerability of the combo pipamperone - citalopram in the treatment of patients with OCD.
Characteristics: patients have an obsessive-compulsive disorder according to DSM-IV criteria, with or without a chronic course and a treatment refractory state towards another SSRI than citalopram.
Treatment with the combo pipamperone-citalopram (n = 7). Treatment with fluvoxamine (controlled release) mean 271 mg/day (n = 253) is according to Hollander et al. (2003).
The intention-to-treat/last-observation-carried-forward analysis is evaluated relating to therapeutic efficacy according Y-BOCS total score, obsession and compulsion scores.

[1] = tested on: patients with major depression; assay: semi-naturalistic open label study of combo pipamperone-citalopram in major depression (Example 2); format: in vivo
Source text: This semi-naturalistic open label study investigated the efficacy and tolerability of the combo pipamperone - citalopram in the treatment of patients with major depression.
• Design: Semi-naturalistic i.e. inclusion of every 'natural' patient in an outpatient practice but without concomitant use of mood enhancing drugs, open label • Control: No • Phase: Phase IIa - preliminary Proof of Concept • Location: Belgium - Research Centre ANIMA, Alken • End Points : Assessment scale scores, Hamilton Depression Rating Scale 17 items, Reduction, Response, Remission • Medication: Exclusion of mood stabilisers, antipsychotics (typical and atypical) and other antidepressants
Patients have a major depressive disorder according to DSM-IV criteria, with or without a chronic course and a treatment refractory state towards another SSRI than citalopram. […]
Adverse events are assessed on: body as a whole, central and peripheral nervous system, gastrointestinal, musculoskeletal, psychiatric, respiratory, skin and appendages, vascular and urinary, taking into account discontinued treatment due to adverse events. Laboratory parameters, ECG, bodyweight and vital signs are not measured since this is a naturalistic study.

D4 receptor = target: T1, D4 receptor (Homo sapiens, UniProt P21917); assay: receptor binding affinity (pKi); conditions: read-out: pKi value towards the D4 receptor (converted)
T1 sequence (P21917 1-419): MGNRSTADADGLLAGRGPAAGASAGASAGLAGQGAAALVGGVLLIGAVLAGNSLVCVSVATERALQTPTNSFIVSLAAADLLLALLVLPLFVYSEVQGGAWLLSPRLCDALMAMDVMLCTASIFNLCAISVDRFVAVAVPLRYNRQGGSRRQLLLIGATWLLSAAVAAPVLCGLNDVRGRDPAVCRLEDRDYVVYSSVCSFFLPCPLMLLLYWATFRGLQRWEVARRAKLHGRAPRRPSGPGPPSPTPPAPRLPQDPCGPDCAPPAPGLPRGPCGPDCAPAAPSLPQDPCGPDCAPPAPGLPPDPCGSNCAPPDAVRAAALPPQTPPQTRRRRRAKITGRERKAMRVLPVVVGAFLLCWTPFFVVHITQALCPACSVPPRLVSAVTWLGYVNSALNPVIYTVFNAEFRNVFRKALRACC

[2] = tested on: adrenergic receptors α-1A, α-2A, α-2B, α-2C, β-1, β-2, and the histamine receptor H1; assay: receptor binding affinity (Table 1); conditions: β-1, β-2 and histamine receptor H1
other 5HT receptors = assay: receptor binding affinity (pKi)

NC(=O)C1(N2CCCCC2)CCN(CCCC(=O)c2ccc(F)cc2)CC1 [pipamperone, 1'-[3-(p-Fluorobenzoyl)propyl]-[1,4'-bipiperidine]-4'-carboxamide]
pKi value towards other dopamine receptors (other dopamine receptors): less than 8
sedative effects (patients with OCD): lacking
sedative effects ([1]; major depression study, pipamperone 16-19 mg/day): lacking
boosting effect on a SSRI (citalopram) ([1]; major depression, pipamperone 16-19 mg/day + citalopram 10-20 mg/day, PO, 8 weeks): apparent
Ki (D4 receptor): ≤ 0.01 µM
affinity for other receptors [2]: low or absence of affinity
pKi value towards other 5HT receptors (other 5HT receptors): less than 8
